Legend:
mosquitoes [1] = test: arm-in-cage method with human research participants, laboratory, complete protection time; assay type: in vivo; conditions: inverse prediction from model
mosquitoes [2] = test: as above; assay type: in vivo
Description: When comparing the CPT data of skin-applied insect repellents, such as DEET, using the human surrogate apparatus 100 to the CPT data of skin-applied insect repellents obtained using human research participants via the arm-in-cage method (See Product Performance Test Guidelines OPPTS 810.3700: Insect Repellents to be Applied to Human Skin, United States Environmental Protection Agency, EPA 712-10-001, Jul. 7, 2010), data from both groups is very similar to each other as may be seen with reference to FIG. 5 in a controlled environment, e.g., a laboratory. Further, Table 1 illustrates the average CPT for the two methods based on differing weight percentages of the active ingredient DEET of the insect repellent, as well as the […] (“±SE”) at each weight percentage for the two groups. As may be seen, the differences between the experiments using human research participants via the arm-in-cage method and the experiments using the human surrogate apparatus 100 are statistically negligible.

adult female mosquitoes = test: human surrogate apparatus 100 (Vitro-Skin skin substitute substrate), laboratory, complete protection time; assay type: in vivo, Aedes aegypti; conditions: for Predicted percent DEET concentration (±SE): inverse prediction from model; for CPT data with human surrogate apparatus 100 compared with arm-in-cage group: 10% by weight, laboratory
Description: With reference to FIG. 4, a method of using the human surrogate apparatus 100 is explained.
In certain embodiments, different test substances contain different concentrations of testing insect repellent. The concentration of testing insect repellent can be measured by weight percentage or by volume percentage of the testing insect repellent diluted in ethanol or in any other suitable diluents. […] Further, in the present embodiment, regardless of the concentration of the repellent, the combined mass of the repellent and ethanol is about 0.19 g. In other experiments, the combined mass of the repellent(s) and the diluent(s) is greater or less than about 0.19 g, but similarly stays the same independent of the concentration of the repellent. With different sets of experiments, the amount of skin-applied test substance used in the testing is based on the size of the substrate and the properties of different testing insect repellents, such as the active ingredient dosage.
This cycle of exposure-withdrawal-exposure is repeated until one or more biting insects land on the treated substrate for equal to or longer than 2 seconds.

wild mosquitoes = test: portable human surrogate apparatus 200, outdoor field test, complete protection time; assay type: in vivo; conditions: for CPT data with human surrogate apparatus 200 compared with voluntary human subjects group: outdoor field test
Description: The human surrogate apparatus of FIG. 1 is intended for use in a laboratory or controlled environment. Preferably, the controlled environment has a temperature range of between about 24° C. to about 30° C. and a range of relative humidity of between about 40% to about 60%. In contrast, FIGS. 2 and 3 illustrate an embodiment of a human surrogate apparatus 200 for testing the efficacy of a skin-applied insect repellent in the field. By fashioning the human surrogate apparatus 200 to be portable, the apparatus may be used in any number of real world environments. The human surrogate apparatus 200 therefore provides the advantage of similar testing efficacy as human testing, but without exposure to mosquitoes or other insects found in the field.
With reference still to FIGS. 2 and 3, the human surrogate apparatus 200 is disposed in an outdoor environment, with an identified population of biting insects. The portable human surrogate apparatus 200 is provided with a housing 202 having a power supply line 204 connected thereto. In some embodiments, a power supply 206 is located remotely from the housing 202 to provide power to the human surrogate apparatus 200. Alternatively, or in addition, a local power supply is provided within or attached to the housing 202. In such an embodiment, the power supply line 204 may be omitted, provided within the housing 202, or otherwise fashioned differently within the housing 202 to allow energy to reach electrical components thereof
With reference to FIG. 3, the human surrogate apparatus 200 includes a heater 208 in electrical communication with the power supply 206. In the present embodiment, the heater 208 is a silicone-rubber heating blanket, manufactured by BriskHeat Corporation, Columbus, OH. A non-collagen based, non-biological substrate 210 is also provided and is exposed to the ambient environment. In certain embodiments the non-collagen based, non-biological substrate 210 may be synthetic.
In the present embodiment, the substrate 210 is securely fastened to the portable human surrogate apparatus 200 by magnetic strips 212, or may be fastened by any other suitable means. In some embodiments a temperature buffering device 214 is provided beneath the substrate 210, which assists in transmitting heat from the heater 208 and maintains the substrate 210 at a predetermined temperature. In the present embodiment, the temperature buffering device 214 is a water bath, enclosed in a container 220, which is made of materials that prevent water leakage and that transmit heat at the same time. Moreover, the portable human surrogate apparatus 200 is connected to a CO2 source 216, which may be remote from the housing 202, attached to the housing 202, or otherwise retained within the housing 202. In the present embodiment, the CO2 source 216 delivers CO2 at a rate of between about 400 mL/min (14 oz/min) to about 600 mL/min (20.3 oz/min).
It has also been experimentally determined that the human surrogate apparatuses described herein perform consistently in a controlled environment, e.g., a laboratory with predetermined and controllable conditions, and in an uncontrolled environment, e.g., in an outdoor field test. With reference to FIG. 8 and Table 3, the CPT in hours obtained from testing 7% weight percentage DEET repellent efficacy in the laboratory and obtained from the field is similar.
Similarly, for testing substance picaridin (referring to FIGS. 11A-11C) and PMD (referring to FIGS. 12A-12C), the CPT data (including average CPT) in the human surrogate apparatus 200 group shares overlapping confidence intervals with the CPT data in the field test group using the voluntary human subjects.

[3] = surface wetting of insect repellent actives on hydrated skin substitute substrate; assay type: physicochemical; conditions: for surface wetting on skin substitute substrate: ethanol solutions containing 5%, 10%, 15%, and 25% of the active; for surface wetting on hydrated skin substitute substrate: insect repellant active as such
Description: Additionally, the surface wetting of insect repellents on the skin substitute substrate should be close to the surface wetting of insect repellents on human skin. The term “wetting” refers to the ease with which a substance can intimately contact and spread over a given substrate. There are a variety of forces (ionic, static, polar, van der Waals etc.) acting between the substance and the substrates that ensure good bonding. Good wetting provides a larger area of contact where these forces may act. Consequently, good wetting is crucial for good bond formation. […] Complete wetting is achieved when the contact angle between the liquid and the solid surface is approaching or is substantially zero. […] The interaction of ethanol solutions containing 5%, 10%, 15%, and 25% of each aforementioned active substance and the tested skin substitute substrate was also tested. […] Due to this degree of wetting between the insect repellent active and the tested skin substitute substrate, the desired bonding between the active and the tested skin substitute substrate is achieved. As a result, the insect repellent remains on the skin substitute substrate for a duration similar to that of human skin.

[4] = 7% DEET in EtOH, Lab, human surrogate apparatus
[5] = 7% DEET in ethanol, Human Skin Surrogate
[6] = 15% DEET in ethanol, Human Skin Surrogate
[7] = 20% DEET in ethanol, Human Skin Surrogate
[8] = 25% DEET in ethanol, Human Skin Surrogate
[9] = 30% DEET in ethanol, Human Skin Surrogate
[10] = 7% DEET in EtOH, Field, human surrogate apparatus

CCN(CC)C(=O)c1cccc(C)c1 [DEET, N,N-Diethyl-3-methylbenzamide]
Predicted percent DEET concentration (±SE) (mosquitoes [1]; for complete protection time 1 h): 1.61 ± 1.69% | Predicted percent DEET concentration (±SE) (mosquitoes [1]; for complete protection time 2 h): 6.15 ± 0.94% | Predicted percent DEET concentration (±SE) (mosquitoes [1]; for complete protection time 3 h): 10.07 ± 0.88% | Predicted percent DEET concentration (±SE) (mosquitoes [1]; for complete protection time 4 h): 14.08 ± 1.15% | Predicted percent DEET concentration (±SE) (mosquitoes [1]; for complete protection time 5 h): 18.70 ± 1.46% | Predicted percent DEET concentration (±SE) (mosquitoes [1]; for complete protection time 6 h): 24.85 ± 2.64% | Complete protection time (median) (mosquitoes [2]; 7% DEET in ethanol): 2.3 h | Complete protection time Mean ± SE (mosquitoes [2]; 7% DEET in ethanol): 2.5 ± 0.7 h | Complete protection time (median) (mosquitoes [2]; 15% DEET in ethanol): 3.5 h | Complete protection time Mean ± SE (mosquitoes [2]; 15% DEET in ethanol): 3.9 ± 1.5 h | Complete protection time (median) (mosquitoes [2]; 20% DEET in ethanol): 3.8 h | Complete protection time Mean ± SE (mosquitoes [2]; 20% DEET in ethanol): 4.9 ± 2.1 h | Complete protection time (median) (mosquitoes [2]; 25% DEET in ethanol): 6.8 h | Complete protection time Mean ± SE (mosquitoes [2]; 25% DEET in ethanol): 6.5 ± 1.4 h | Complete protection time (median) (mosquitoes [2]; 30% DEET in ethanol): 6.6 h | Complete protection time Mean ± SE (mosquitoes [2]; 30% DEET in ethanol): 6.6 ± 0.7 h | Complete protection time (median) (adult female mosquitoes; [4]): 2.0 h | Complete protection time Mean ± SE (adult female mosquitoes; [4]): 2.2 ± 0.9 h | Complete protection time Range (adult female mosquitoes; [4]): 1.0 to 3.5 h | Complete protection time (median) (adult female mosquitoes; [5]): 2.0 h | Complete protection time Mean ± SE (adult female mosquitoes; [5]): 2.2 ± 0.9 h | Complete protection time (median) (adult female mosquitoes; [6]): 3.3 h | Complete protection time Mean ± SE (adult female mosquitoes; [6]): 3.6 ± 1.0 h | Complete protection time (median) (adult female mosquitoes; [7]): 5.3 h | Complete protection time Mean ± SE (adult female mosquitoes; [7]): 4.9 ± 2.1 h | Complete protection time (median) (adult female mosquitoes; [8]): 6.5 h | Complete protection time Mean ± SE (adult female mosquitoes; [8]): 6.3 ± 1.1 h | Complete protection time (median) (adult female mosquitoes; [9]): 7.0 h | Complete protection time Mean ± SE (adult female mosquitoes; [9]): 6.5 ± 2.3 h | Predicted percent DEET concentration (±SE) (adult female mosquitoes; for complete protection time 1 h, Human Skin Surrogate): 3.81 ± 1.72% | Predicted percent DEET concentration (±SE) (adult female mosquitoes; for complete protection time 2 h, Human Skin Surrogate): 8.17 ± 1.16% | Predicted percent DEET concentration (±SE) (adult female mosquitoes; for complete protection time 3 h, Human Skin Surrogate): 11.92 ± 1.04% | Predicted percent DEET concentration (±SE) (adult female mosquitoes; for complete protection time 4 h, Human Skin Surrogate): 15.71 ± 1.13% | Predicted percent DEET concentration (±SE) (adult female mosquitoes; for complete protection time 5 h, Human Skin Surrogate): 20.00 ± 1.21% | Predicted percent DEET concentration (±SE) (adult female mosquitoes; for complete protection time 6 h, Human Skin Surrogate): 25.55 ± 1.58% | Complete protection time (median) (wild mosquitoes; [10]): 2.0 h | Complete protection time Mean ± SE (wild mosquitoes; [10]): 2.0 ± 0.4 h | Complete protection time Range (wild mosquitoes; [10]): 1.5 to 2.5 h | CPT data with human surrogate apparatus 200 compared with voluntary human subjects group (wild mosquitoes): not significantly different | surface wetting on skin substitute substrate [3]: substantially complete wetting | surface wetting on hydrated skin substitute substrate [3]: substantially complete wetting

CC1CCC(C(C)(C)O)C(O)C1 (stereo not shown) [PMD, para-menthane-3,8-diol]
CPT data with human surrogate apparatus 100 compared with arm-in-cage group (adult female mosquitoes): not significantly different | CPT data with human surrogate apparatus 200 compared with voluntary human subjects group (wild mosquitoes): No statistically significant difference | surface wetting on skin substitute substrate [3]: substantially complete wetting | surface wetting on hydrated skin substitute substrate [3]: substantially complete wetting

CCC(C)OC(=O)N1CCCCC1CCO (stereo not shown) [picaridin, 2-(2-hydroxyethyl)-1-piperidinecarboxylic acid 1-methylpropyl ester]
CPT data with human surrogate apparatus 100 compared with arm-in-cage group (adult female mosquitoes): within the range of CPT data points of the group employing the arm-in-cage method | CPT data with human surrogate apparatus 200 compared with voluntary human subjects group (wild mosquitoes): No statistically significant difference | surface wetting on skin substitute substrate [3]: substantially complete wetting | surface wetting on hydrated skin substitute substrate [3]: substantially complete wetting

Source: patent US10609906B2, “Apparatus and method of using a simulated skin substrate for testing insect repellants” (S. C. JOHNSON & SON, INC., priority 2016, dated 2020)
